Assay results taken from patent publication US6576620B2, “Method of identifying partial adenosine A1 receptor agonists” (CV Therapeutics, Inc., priority 1999, dated 2003).
Entries after “also recorded” stand apart in the source; their conditions may differ.

Columns and labels:
[1] = tested on: guinea pig isolated heart; assay: A-V nodal conduction time / S-H interval, isolated perfused heart; conditions: for second-degree AV block: CPA at 30 nM, Compound 6 at all tested concentrations; for concentration causing an increase of the S-H interval by 13 msec: comparable submaximal responses
Procedure: This method evaluates the potencies of compounds to cause coronary vasodilation (A2A AdoR response) and to prolong A-V nodal conduction time (A1 AdoR response).
Rats and guinea pigs, of either sex weighing from 230 to 260 grams and 300 to 350 grams, respectively, were used in this study. Animals were anesthetized by peritoneal injection of a cocktail containing ketamine and xylazine (ketamine 100 mg, xylazine 20 mg/ml). The chest was opened and the heart quickly removed. The heart was briefly rinse in ice-cold Krebs-Henseleit solution (see below), and the aorta cannulated. The heart was then perfused at a flow rate of 10 ml/min with modified Krebs-Henseleit (K-H) solution containing NaCl 117.9, KCl 4.5, CaCl2 2.5, MgSO4 1.18, KH2PO4 1.18, pyruvate 2.0 mmol. The K-H solution (pH 7.4) was gassed continuously with 95% O2 and 5% CO2 and warmed to 35±0.50° C. The heart was electrically paced at a fixed cycle length of […] (250 beats/min) using a bipolar electrode place on the left atrium. The electrical stimuli were generated by a Grass stimulator (Model S48, W. Warwick, R.I.) and delivered through a Stimuli Isolation Unit (Model SIU5, Astro-Med, Inc., NY) as square-wave pulses of 3-msec in duration and amplitude of at least twice the threshold intensity.
A1 adenosine receptor-mediated depression of A-V nodal conduction time (negative dromotropic effect) was measured. Atrial and ventricular surface electrograms in rats and His bundle electrogram in guinea pigs, were recorded during constant atrial pacing.
The effects of compounds on coronary conductance (A2A effect) and atrioventricular conduction time or stimulus-to-His-bundle (S-H) interval (A1 effect) was then determined. Hearts were instrumented for continuous recording of coronary perfusion pressure (A2A response) and atrioventricular (A-V) conduction time or S-H interval (A1 response). In each experiment, concentration-response relationship of compounds to increase coronary conductance and to prolong A-V conduction time or S-H interval was determined. After control measurements of CPP and A-V conduction time or S-H interval were made, progressive higher concentrations of the compound studied was administered until maximal coronary vasodilation and A-V nodal conduction time or S-H interval prolongation were achieved.
Guinea pigs (Hartley) of either sex weighing 300-350 g were anaesthetized with methoxyflurane and killed by decapitation. The chest was cut open and the heart was removed quickly and rinsed in ice-cold modified Krebs-Henseleit (K-H) solution. The contents of the modified K-H solution were (in mM): NaCl 117.9, KCl 4.8, CaCl2 2.5, MgSO2 1.18, KH2PO4 1.2, Na2 EDTA 0.5, ascorbic acid 0.14, dextrose 5.5, pyruvic acid (sodium salt) 2.0, and NaHCO3 25. The K-H solution was continuously gassed with 95% oxygen and 5% CO2, and the pH was adjusted to a value of 7.4. To perfuse the heart by the Langendorff method, the transected aorta was slid onto a glass cannula and secured by a ligature. Retrograde perfusion of the aorta was initiated immediately at a constant flow of 10 ml min-′ with modified K-H solution warmed to 36.0±0.5° C. A side port in the cannula was used to connect the perfusion line to a Gould pressure transducer for measurement of coronary perfusion pressure. Coronary perfusion pressure was continuously recorded on a strip chart (Gould RS3400, Cleveland, Ohio) throughout each experiment. Coronary conductance (in ml min^−1 mmHg^−1) was calculated as the ratio of coronary flow (10 ml min^−1) to perfusion pressure (mm Hg). To facilitate the exit of fluid from the left ventricle, the leaflets of the mitral valve were trimmed with fine spring-handled scissors. When appropriate, hearts were paced at a constant rate using external electrodes. […]

[2] = tested on: guinea pig isolated heart; assay: Spontaneous atrial rate, isolated heart; conditions: for atrial rate: maximal effect, controls 195±6 (Compound 6) and 198±15 (CPA)
Text: Guinea pigs (Hartley) of either sex weighing 300-350 g were anaesthetized with methoxyflurane and killed by decapitation. The chest was cut open and the heart was removed quickly and rinsed in ice-cold modified Krebs-Henseleit (K-H) solution. The contents of the modified K-H solution were (in mM): NaCl 117.9, KCl 4.8, CaCl2 2.5, MgSO2 1.18, KH2PO4 1.2, Na2 EDTA 0.5, ascorbic acid 0.14, dextrose 5.5, pyruvic acid (sodium salt) 2.0, and NaHCO3 25. The K-H solution was continuously gassed with 95% oxygen and 5% CO2, and the pH was adjusted to a value of 7.4. To perfuse the heart by the Langendorff method, the transected aorta was slid onto a glass cannula and secured by a ligature. Retrograde perfusion of the aorta was initiated immediately at a constant flow of 10 ml min-′ with modified K-H solution warmed to 36.0±0.5° C. A side port in the cannula was used to connect the perfusion line to a Gould pressure transducer for measurement of coronary perfusion pressure. Coronary perfusion pressure was continuously recorded on a strip chart (Gould RS3400, Cleveland, Ohio) throughout each experiment. Coronary conductance (in ml min^−1 mmHg^−1) was calculated as the ratio of coronary flow (10 ml min^−1) to perfusion pressure (mm Hg). To facilitate the exit of fluid from the left ventricle, the leaflets of the mitral valve were trimmed with fine spring-handled scissors. When appropriate, hearts were paced at a constant rate using external electrodes. After completion of dissection and instrumentation (see below) for measurement of either atrial rate, stimulus-to-His bundle (S-H) interval, monophasic action potentials, or coronary perfusion pressure, each heart was allowed to equilibrate for 20-40 min before the administration of drug. Experimental interventions were always preceded and followed by control measurements. Criteria for exclusion of hearts from study were (1) a coronary perfusion pressure of less than 50 mm Hg, (2) absence of a stable coronary perfusion pressure during the equilibration period, and (3) inability to pace a heart at a constant rate throughout an experiment.
To measure spontaneous atrial rate in hearts that were not paced, a unipolar electrode was placed on the right atrium. A total of 10 atrial beats before, during, and after each intervention was recorded on chart paper moving at a rate of 50 mm per sec, and the average atrial rate at each time was determined from these records.

In the case of `CNC(=O)OC[C@H]1OC(n2cnc3c(N[C@@H]4CCOC4)ncnc32)[C@H](O)[C@@H]1O` (stereo partly drawn) [Compound 6 of Example 2, [(5-{6-[((3R)oxolan-3-yl)amino]purin-9-yl}(3 S,2R,4R)-3,4-dihydroxyoxolan-2-yl)methoxy]-N-methylcarboxamide], the “concentration at which effect on S-H interval reached a maximum” value [1] is reported as 30 to 100 µM, the “antagonism of S-H interval prolongation induced by CPA” value ([1]; 10 μM compound) is reported as “partially reversed the S-H interval prolongation induced by CPA” and the “increase of the S-H interval” value ([1]; 10 μM compound) is reported as 12 ms. For the same compound, the “increase of the S-H interval” value ([1]; 10 μM compound in the presence of 50 nM CPX) was 4 ms, the “decrease of S-H interval” value ([1]; 10 μM compound in the presence of iodotubercidin and EHNA) was 16 ms and the S-H interval ([1]; 10 μM compound in the presence of iodotubercidin and EHNA (80±6 msec before)) was 64 ± 2 ms. For the same compound, the S-H interval ([1]; 10 μM compound, control 46±2 msec) was 58 ± 2 ms, the “second-degree AV block” value [1] was “did not cause second-degree A-V block in any heart” and the EC50 ([1]; Cavia porcellus, electrically paced heart, read-out: EC50 to increase the S-H interval) was 3100 nM. The “concentration causing an increase of the S-H interval by 13 msec” value [1] was 10,000 nM, the “S-H interval at maximum effect” value ([1]; control 45±1 msec) was 60 ± 3 ms and the “maximum increase of S-H interval” value ([1]; electrically paced heart) was 33%. For the same compound, the “adenosine concentration causing second-degree AV block” value ([1]; presence of 4 μM Compound 6 of Example 2) was 8 µM, the “adenosine concentration causing second-degree AV block” value ([1]; presence of 10 μM Compound 6 of Example 2) was 20 µM and the atrial rate [2] was 169±7 beats per minute. The “decrease of atrial rate” value ([2]; spontaneously-beating hearts) was 13%.

In the case of `OC[C@H]1O[C@@H](n2cnc3c(NC4CCCC4)ncnc32)[C@H](O)[C@@H]1O` [CPA, N^6-cyclopentyladenosine, reference compound], the S-H interval ([1]; CPA 30 nM, control 44±1 msec) is reported as 87 ± 2 ms, the S-H interval ([1]; CPA 10 μM as printed, control 42±1 msec) is reported as 59 ± 4 ms and the S-H interval ([1]; CPA 15 μM as printed, control 42±1 msec) is reported as 81 ± 6 ms. For the same compound, the S-H interval ([1]; CPA 20 μM as printed, control 42±1 msec) was 103 ± 8 ms, the “second-degree AV block” value [1] was “second-degree AV block occurred in all hearts; also recorded: caused second-degree AV block in all hearts” and the “S-H interval Efficacy” value ([1]; Table 5, 2759 = CVT-2759) was “Full (Potent)”. For the same compound, the “concentration causing an increase of the S-H interval by 13 msec” value [1] was 10 nM, the EC50 ([2]; Cavia porcellus, read-out: EC50 to decrease atrial rate) was 68 nM and the atrial rate [2] was 1±1 beats per minute.
